Test system: Cells
Assay: Trypan blue dye exclusion (cell viability and toxicity)
Format: cell-based
Conditions: 1, 10, 50, 100 μM for 48 to 66 hours, compared to vehicle
Method: The trypan blue dye exclusion is commonly used for measuring cell viability and toxicity. 48-66 hours after treatment of ABAD compounds, the trypan blue exclusion experiments were performed. In brief, cells plated in 96-well plates were washed with the balanced salt solution (Hanks-Balanced Salts/HESS) once, then replaced with HBSS including trypan blue solution to the final concentration of 0.2% (Sigma-Aldrich, St. Louis, Mo.), and mixed thoroughly. After standing at room temperature for 5 minutes, the cells were washed with HBSS again and then maintained in the well with HBSS. Both the stained and unstained cells in each well were counted under a microscope (Nikon E400). The calculated percentage of unstained cells represented the percentage of viable cells. Cell viability(%)=total viable cells (unstained)/total cells (stained and unstained)×100.
Effect of ABAD Inhibitor on Cell Survival and Toxicity. The effect of ABAD inhibitors on cell viability and toxicity was assessed using MTT reduction assay and trypan blue exclusion, which are widely used to assess cell survival and toxicity and to screen for drugs toxicity. Cells were treated with a range of concentrations of ABAD compound (4 and 8) at 1, 10, 50, 100 μM for 48 to 66 hours.

Row | SMILES | increased percentage of trypan blue-positive cells
1 | COC(=O)c1cc([C@H](Nc2nc3ccc(OC)cc3s2)P(=O)(OC)OC)ccc1O [Compound 4, Methyl 5-((dimethoxyphosphoryl)((6-methoxybenzo[d]thiazol-2-yl)amino)methyl)-2-hydroxybenzoate] | did not exhibit
2 | COc1ccc2nc(N[C@@H](c3ccc(O)cc3)P(=O)(OC)OC)sc2c1 (racemic) [Compound 8, Dimethyl ((4-hydroxyphenyl)((6-methoxybenzo[d]thiazol-2-yl)amino)methyl)phosphonate] | did not exhibit

— patent publication US9346839B2
